Drawing on US9006187B2, “Thiophene derivative as SGLT2 inhibitor and pharmaceutical composition comprising same” (Green Cross Corporation, priority 2010, dated 2015), this text covers IC50 for 22 molecules.

The target in this assay is Human SGLT2 (hSGLT2) (Homo sapiens (Human), UniProt P31639). As to the kind of experiment: Inhibitory effects on human SGLT2 activities: sodium-dependent 14C-AMG glucose transport (uptake) assay in CHO cells expressing hSGLT2. Conditions: read-out: hSGLT2 Inhibitory Activity IC50; CHO cells stably expressing hSGLT2; 14C-AMG uptake, 37° C., 2 h; single determinations for examples; in-house assay.
Sequence of Human SGLT2 (hSGLT2) (P31639 whole entry): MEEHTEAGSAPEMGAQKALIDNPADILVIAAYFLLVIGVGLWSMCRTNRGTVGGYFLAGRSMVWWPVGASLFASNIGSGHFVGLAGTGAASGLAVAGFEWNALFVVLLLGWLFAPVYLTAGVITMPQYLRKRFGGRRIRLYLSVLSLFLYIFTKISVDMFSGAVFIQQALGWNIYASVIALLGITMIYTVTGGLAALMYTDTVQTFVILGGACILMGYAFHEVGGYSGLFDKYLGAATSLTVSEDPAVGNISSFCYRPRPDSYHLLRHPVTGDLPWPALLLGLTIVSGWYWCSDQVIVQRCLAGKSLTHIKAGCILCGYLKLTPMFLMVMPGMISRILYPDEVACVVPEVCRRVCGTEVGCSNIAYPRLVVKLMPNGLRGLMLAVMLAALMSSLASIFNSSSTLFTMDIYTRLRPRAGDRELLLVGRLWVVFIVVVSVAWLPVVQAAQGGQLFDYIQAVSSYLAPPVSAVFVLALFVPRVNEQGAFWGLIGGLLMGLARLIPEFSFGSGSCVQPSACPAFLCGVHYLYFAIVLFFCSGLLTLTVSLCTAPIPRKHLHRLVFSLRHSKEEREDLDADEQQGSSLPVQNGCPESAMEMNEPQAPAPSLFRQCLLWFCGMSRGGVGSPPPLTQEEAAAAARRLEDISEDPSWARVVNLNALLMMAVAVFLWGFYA
Consider `CCOc1ccc(Cc2cc([C@@H]3O[C@H](CO)[C@@H](O)[C@H](O)[C@H]3O)sc2C)cc1` [Example 19, (2R,3R,4S,5S,6R)-2-(4-(4-ethoxybenzyl)-5-methylthiophen-2-yl)-6-(hydroxymethyl)-tetrahydro-2H-pyran-3,4,5-triol], for which the IC50 – broadly, the concentration needed to halve the response being measured – was found to be 8.73 nM.
For `COc1ccc(Cc2cc([C@@H]3O[C@H](CO)[C@@H](O)[C@H](O)[C@H]3O)sc2Cl)cc1` [Example 2, (2R,3R,4S,5S,6R)-2-(5-chloro-4-(4-methoxybenzyl)thiophen-2-yl)-6-(hydroxymethyl)-tetrahydro-2H-pyran-3,4,5-triol], the IC50 is 86.5 nM.
`OC[C@H]1O[C@@H](c2cc(Cc3ccc(O)cc3)c(Cl)s2)[C@H](O)[C@@H](O)[C@@H]1O` [Example 6, (2R,3R,4S,5S,6R)-2-(5-chloro-4-(4-hydroxybenzyl)thiophen-2-yl)-6-(hydroxymethyl)-tetrahydro-2H-pyran-3,4,5-triol]: the IC50 was determined as 140 nM.
`Cc1cc([C@@H]2O[C@H](CO)[C@@H](O)[C@H](O)[C@H]2O)sc1Cc1ccc(C(C)(C)C)cc1` [Example 27, (2R,3R,4S,5S,6R)-2-(5-(4-tert-butylbenzyl)-4-methylthiophen-2-yl)-6-(hydroxymethyl)tetrahydro-2H-pyran-3,4,5-triol]: the IC50 is 88.3 nM.
`C=CCOc1ccc(Cc2cc([C@@H]3O[C@H](CO)[C@@H](O)[C@H](O)[C@H]3O)sc2C)cc1` [Example 22, (2R,3R,4S,5S,6R)-2-(4-(4-(allyloxy)benzyl)-5-methylthiophen-2-yl)-6-(hydroxymethyl)-tetrahydro-2H-pyran-3,4,5-triol]: the IC50 is 27.5 nM.
In the case of `CCCOc1ccc(Cc2cc([C@@H]3O[C@H](CO)[C@@H](O)[C@H](O)[C@H]3O)sc2Cl)cc1` [Example 5, (2R,3R,4S,5S,6R)-2-(5-chloro-4-(4-propoxybenzyl)thiophen-2-yl)-6-(hydroxymethyl)-tetrahydro-2H-pyran-3,4,5-triol], the IC50 is 65 nM.
Regarding `CCSc1ccc(Cc2cc([C@@H]3O[C@H](CO)[C@@H](O)[C@H](O)[C@H]3O)sc2Cl)cc1` [Example 7, (2R,3R,4S,5S,6R)-2-(5-chloro-4-(4-(ethylthio)benzyl)thiophen-2-yl)-6-(hydroxymethyl)-tetrahydro-2H-pyran-3,4,5-triol], the IC50 was 48.4 nM.
`C=CCOc1ccc(Cc2cc([C@@H]3O[C@H](CO)[C@@H](O)[C@H](O)[C@H]3O)sc2Cl)cc1` [Example 4, (2R,3R,4S,5S,6R)-2-(4-(4-(allyloxy)benzyl)-5-chlorothiophen-2-yl)-6-(hydroxymethyl)-tetrahydro-2H-pyran-3,4,5-triol]: the IC50 turned out to be 54.6 nM.
As for `C#CCOc1ccc(Cc2cc([C@@H]3O[C@H](CO)[C@@H](O)[C@H](O)[C@H]3O)sc2Cl)cc1` [Example 8, (2R,3R,4S,5S,6R)-2-(5-chloro-4-(4-(prop-2-ynyloxy)benzyl)thiophen-2-yl)-6-(hydroxymethyl)-tetrahydro-2H-pyran-3,4,5-triol], the IC50 came to 111 nM.
As for `CC#CCOc1ccc(Cc2cc([C@@H]3O[C@H](CO)[C@@H](O)[C@H](O)[C@H]3O)sc2Cl)cc1` [Example 15, (2R,3R,4S,5S,6R)-2-(4-(4-(but-2-ynyloxy)benzyl)-5-chlorothiophen-2-yl)-6-(hydroxymethyl)-tetrahydro-2H-pyran-3,4,5-triol], the IC50 was 94 nM.
As to `CCOCCOc1ccc(Cc2cc([C@@H]3O[C@H](CO)[C@@H](O)[C@H](O)[C@H]3O)sc2Cl)cc1` [Example 13, (2R,3R,4S,5S,6R)-2-(5-chloro-4-(4-(2-ethoxyethoxy)benzyl)thiophen-2-yl)-6-(hydroxymethyl)-tetrahydro-2H-pyran-3,4,5-triol], the IC50 is 70.7 nM.
With `COc1ccc(Cc2cc([C@@H]3O[C@H](CO)[C@@H](O)[C@H](O)[C@H]3O)sc2C)cc1` [Example 20, (2R,3S,4S,5R,6R)-2-(hydroxymethyl)-6-(4-(4-methoxybenzyl)-5-methylthiophen-2-yl)-tetrahydro-2H-pyran-3,4,5-triol], the IC50 was 11.5 nM.
For the molecule `Cc1sc([C@@H]2O[C@H](CO)[C@@H](O)[C@H](O)[C@H]2O)cc1Cc1ccc(-c2ccc(F)cc2)s1` [Example 21, (2R,3R,4S,5S,6R)-2-(4-((5-(4-fluorophenyl)thiophen-2-yl)methyl)-5-methylthiophen-2-yl)-6-(hydroxymethyl)-tetrahydro-2H-pyran-3,4,5-triol], the half-inhibitory concentration (IC50) is 21.1 nM.
In the case of `Cc1cc([C@@H]2O[C@H](CO)[C@@H](O)[C@H](O)[C@H]2O)sc1Cc1ccc(Cl)cc1` [Example 28, (2R,3R,4S,5S,6R)-2-(5-(4-chlorobenzyl)-4-methylthiophen-2-yl)-6-(hydroxymethyl)tetrahydro-2H-pyran-3,4,5-triol], the IC50 came to 451 nM.
As for `COc1ccc(Cc2sc([C@@H]3O[C@H](CO)[C@@H](O)[C@H](O)[C@H]3O)cc2C)cc1` [Example 30, (2R,3S,4S,5R,6R)-2-(hydroxymethyl)-6-(5-(4-methoxybenzyl)-4-methylthiophen-2-yl)tetrahydro-2H-pyran-3,4,5-triol], the figure is 68.9 nM.
As to `OC[C@H]1O[C@@H](c2cc(Cc3ccc(-c4ccc(F)cc4)s3)c(Cl)s2)[C@H](O)[C@@H](O)[C@@H]1O` [Example 3, (2R,3R,4S,5S,6R)-2-(5-chloro-4-((5-(4-fluorophenyl)thiophen-2-yl)methyl)thiophen-2-yl)-6-(hydroxymethyl)-tetrahydro-2H-pyran-3,4,5-triol], the IC50 stood at 91.3 nM.
Next, `CCc1ccc(Cc2cc([C@@H]3O[C@H](CO)[C@@H](O)[C@H](O)[C@H]3O)sc2Cl)cc1` [Example 17, (2R,3R,4S,5S,6R)-2-(5-chloro-4-(4-ethylbenzyl)thiophen-2-yl)-6-(hydroxymethyl)-tetrahydro-2H-pyran-3,4,5-triol]: 4.47 nM.
On to `COCCOc1ccc(Cc2cc([C@@H]3O[C@H](CO)[C@@H](O)[C@H](O)[C@H]3O)sc2Cl)cc1` [Example 10, (2R,3R,4S,5S,6R)-2-(5-chloro-4-(4-(2-methoxyethoxy)benzyl)thiophen-2-yl)-6-(hydroxymethyl)-tetrahydro-2H-pyran-3,4,5-triol], for which the IC50 worked out at 115 nM.
For the molecule `OC[C@H]1O[C@@H](c2cc(Cc3ccc(OC4CCOC4)cc3)c(Cl)s2)[C@H](O)[C@@H](O)[C@@H]1O` (stereo partly drawn) [Example 16, (2R,3R,4S,5S,6R)-2-(5-chloro-4-(4-(tetrahydrofuran-3-yloxy)benzyl)thiophen-2-yl)-6-(hydroxymethyl)-tetrahydro-2H-pyran-3,4,5-triol], the IC50 was 162 nM.
Next, `Cc1ccc(Cc2cc([C@@H]3O[C@H](CO)[C@@H](O)[C@H](O)[C@H]3O)sc2Cl)cc1` [Example 14, (2R,3R,4S,5S,6R)-2-(5-chloro-4-(4-methylbenzyl)thiophen-2-yl)-6-(hydroxymethyl)-tetrahydro-2H-pyran-3,4,5-triol]: 60.2 nM; `CSc1ccc(Cc2cc([C@@H]3O[C@H](CO)[C@@H](O)[C@H](O)[C@H]3O)sc2Cl)cc1` [Example 12, (2R,3R,4S,5S,6R)-2-(5-chloro-4-(4-(methylthio)benzyl)thiophen-2-yl)-6-(hydroxymethyl)-tetrahydro-2H-pyran-3,4,5-triol]: 12.8 nM.
Consider `CC(C)Oc1ccc(Cc2cc([C@@H]3O[C@H](CO)[C@@H](O)[C@H](O)[C@H]3O)sc2Cl)cc1` [Example 9, (2R,3R,4S,5S,6R)-2-(5-chloro-4-(4-isopropoxybenzyl)thiophen-2-yl)-6-(hydroxymethyl)-tetrahydro-2H-pyran-3,4,5-triol], for which the IC50 was determined as 11.9 nM.
